Results taken from publication PMC8465649, “Semaphorin 3A—Glycosaminoglycans Interaction as Therapeutic Target for Axonal Regeneration” (Pharmaceuticals, 2021).

Key:
[1] = test system: SCTWT–heparin interaction; assay: 2D 1H-15N HSQC CSP: displacement of SCTWT from dp14 heparin; format: binding, human; details: 0.2 mM SCTWT, 0.05 mM dp14 heparin, 4 mM CSIC02, pH 4.5
Protocol: NMR competition experiments involved the acquisition of 1D-^1H WaterLOGSY or spin-lock filtered NMR spectra. Thus, FS2 peptide is displaced from heparin agarose resin by CSIC02 (1:1 peptoid/FS2, both 1 mM), but not by CSIC03 (Figure S15). […] We reasoned that if CSIC02 was able to interact with GAG and displace FS2/FS3 basic peptides, it may also interfere with SCTWT–heparin interaction. To investigate if CSIC02 could displace SCTWT from heparin dp14 and to define the SCTWT residues affected, 2D NMR ^1H-^15N HSQC CSP experiments were used. Figure 8a illustrates the chemical shift effects of CSIC02 addition to a sample of SCTWT containing dp14 heparin. […] In Figure 8b, we display the chemical shift perturbation of SCTWT NMR spectra in the presence of dp14 and CSIC02. Thus, as the two CSP plots in Figure 4b and Figure 8b were calculated using as reference SCTWT alone in solution, we can compare them directly. […]
Figure 8 (a) Overlay of [^1H-^15N]-HSQC spectra of 0.2 mM Sema3A C-terminal region (orange) highlighting the changes of 0.05 mM (or 0.35 mM in disaccharide units) dp14 heparin oligosaccharide binding in the absence (purple) and the presence (turquoise) of 4 mM CSIC02. […] The absolute values of the chemical shift differences between the presence and absence of dp14 are plotted in ppm and calculated comparing with the chemical shifts of the protein alone. […]

[2] = Potentiometric titration (protonation state); format: physicochemical; details: 25 °C, 0.15 M NaCl
Protocol: UV absorbance was measured using a SpectraMax M5 spectrophotometer (Molecular Devices, Sunnyvale, CA, USA). The experiments were performed with a 10 μM methylene blue (MB) solution in 5 mM Tris-HCl buffer at pH 7.5, to which increasing amounts of heparin were added to saturation of the MB dye. For the competition assays, solutions of MB and heparin at fixed concentrations were titrated with increasing amounts of SICHI or CSIC02–04 peptoids. Then, the relative increase in absorbance at 665 nm, due to release of MB from the MB–heparin complex when adding either SICHI or CSIC02–04 to the cuvette, can be plotted vs. the charge ratio considering their respective concentrations and that all the peptoids have three positive charges, and heparin has four negative charges per disaccharide unit. With this information, the charge excess for 50% of displacement of the MB dye (CE50) for each compound can be calculated for comparison. Potentiometric titrations were carried out in a reaction vessel thermostated with a water bath at 25.0 ± 0.1 °C under nitrogen atmosphere, and 0.15 M NaCl was used as the supporting electrolyte. The titrant was delivered by a precision microburette. The potentiometric measurements were made with a pH-mV meter. The reference electrode was an Ag/AgCl electrode in saturated KCl solution. The acquisition of the emf data was performed with the computer program Tiamo 2.3.1. […]

protonation state at neutral pH [2]: triprotonated
Structure (SMILES): CCN(CC)CCN(CC(=O)N(CCN1CCCC1)CC(=O)N(CCC1CCCN1C)CC(N)=O)C(=O)OCc1ccccc1 (centres unmarked) [CSIC02]
effect on dp14 heparin-induced chemical shift perturbations of SCTWT [1]: modest decrease in dp14-induced perturbations
